Earlier results, collected in patent US20210268001A1, “USE OF MIOTIC C[…] F2a PRO[…] FOR PREVENTION AND TREATMENT OF MYOPIA” (priority 2018, published 2021).

Assays:
[1] = system: corneal epithelium epithelial cells
[2] = system: cholinergic receptors; set-up: unit not given here; conditions: reversible acetylcholinesterase inhibitors

Row | Structure (SMILES) | cytotoxic effect on epithelial cells ([1]; high concentration of NO (100 mM NaNO2), over the same period (6 hs)) | viability of epithelial cells ([1]; low concentrations of NO (1 nM to 1 mM NaNO2), 6 hs after application) | action time [2]
1 | O=N[O-].[Na+] [NaNO2] | cytotoxic effect | significantly increased | 
2 | COc1cc2c(cc1OC)C(=O)C(CC1CCN(Cc3ccccc3)CC1)C2 (stereo not shown) [donepezil] |  |  | one to two
3 | CC[N+](C)(C)c1cccc(O)c1 [edrophonium] |  |  | one to two
4 | CN(C)C(=O)Oc1cccc([N+](C)(C)C)c1 [neostigmine] |  |  | one to two
5 | CN(C)C(=O)Oc1ccc[n+](C)c1 [pyridostigmine] |  |  | one to two
6 | CCN(C)C(=O)Oc1cccc([C@H](C)N(C)C)c1 [rivastigmine] |  |  | one to two
